Literature values, collected in patent publication US12427126B2, “Niclosamide formulations and methods of use” (Florida State University Research Foundation, Inc., priority 2020, dated 2025).

Columns and labels:
[1] = administered orally

O=C(Nc1ccc([N+](=O)[O-])cc1Cl)c1cc(Cl)ccc1O [Niclosamide]
solubility: low solubility
systemic bioavailability [1]: low systemic bioavailability
